Results taken from PubChem BioAssay (NCI).
Where “and” joins values, the source holds several entries; their conditions need not be identical. Identical values can stand only once.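 Briefly, cells in 96-well plates were exposed to five compound concentrations for 48 h, and endpoints were estimated by linear interpolation. GI50 marks 50% less growth. TGI denotes the concentration required for complete inhibition of growth.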

Experiments:
Test in all cases: NCI-60 cell line screen, 48 h
DLD-1 colon = system: DLD-1 colon
XF 498 CNS = system: XF 498 CNS
LXFL 529 NSCLC = system: LXFL 529 NSCLC
M19-MEL melanoma = system: M19-MEL melanoma
IGROV1 ovarian = system: IGROV1 ovarian
HOP-18 NSCLC = system: HOP-18 NSCLC
UACC-257 melanoma = system: UACC-257 melanoma
DU-145 prostate = system: DU-145 prostate

Compound | TGI (DLD-1 colon) [µM] | TGI (XF 498 CNS) [µM] | TGI (LXFL 529 NSCLC) | TGI (M19-MEL melanoma) [µM] | TGI (IGROV1 ovarian) | TGI (HOP-18 NSCLC) [µM] | TGI (UACC-257 melanoma) [µM] | GI50 (DLD-1 colon) [µM] | TGI (DU-145 prostate) [µM] | GI50 (LXFL 529 NSCLC) [µM] | GI50 (M19-MEL melanoma) [µM] | GI50 (IGROV1 ovarian) [µM] | GI50 (UACC-257 melanoma) [µM] | GI50 (XF 498 CNS) [µM]
N[C@H]1C2C3CC4C5CC(C42)C1(c1ccccc1)C53 (stereo not given in full) | > 100 | > 100 | > 100 µM | > 100 | > 100 µM | > 100 | – | – | – | – | – | – | – | –
N#Cc1ccccc1NC(=O)C(=O)C(C(=O)c1ccccc1-c1ccccc1)C1OC(=O)c2ccccc21 (stereo not given) | 32.4 | 33.6 | – | 35.3 | 66.7 µM | – | 53.8 | – | – | – | – | – | – | –
CCOC(=O)c1cccc(=O)c(C(=O)OCC)c1 | > 100 | > 100 | > 100 µM | > 100 | > 100 µM | – | > 100 | – | – | – | – | – | – | –
CC1=C(C(=O)Nc2ccc([N+](=O)[O-])cc2)C(c2ccco2)C(C(=O)Nc2ccc([N+](=O)[O-])cc2)=C(C)N1 | > 100 | > 100 | > 100 µM | 77.2 | > 100 µM | – | 98.5 | – | – | – | – | – | – | –
O=C(O)CN(c1ccc(Cl)cc1)S(=O)(=O)c1ccccc1 | > 100 | > 100 | > 100 µM | > 100 | > 100 µM | > 100 | > 100 | – | – | – | – | – | – | –
O=C1C2=C(c3ccccc31)C(c1ccc(Cl)cc1)N1C(=O)CCSC1=N2 (stereo not given) | > 100 | > 100 | > 100 µM | > 100 | > 100 µM | – | > 100 | – | – | – | – | – | – | –
COC1C=C(Nc2cccc(Cl)c2)C(=O)C1 (stereo not given) | > 100 | 77 | > 100 µM | > 100 | > 100 µM | 76.2 | > 100 | – | – | – | – | – | – | –
COc1c(OC(C)=O)ccc(/C=C2\N=C(C)OC2=O)c1[N+](=O)[O-] | > 100 | – | > 100 µM | > 100 | > 100 µM | > 100 | > 100 | – | – | – | – | – | – | –
O=C1C2=C(c3ccccc31)C(c1cccc(Cl)c1)NC(=S)N2 (stereo not given) | > 100 | > 100 | > 100 µM | > 100 | > 100 µM | – | > 100 | – | – | – | – | – | – | –
CC(C)=CC(=O)CC(=O)C(=O)Nc1ccc(C)c(C)c1 | > 100 | > 100 | > 100 µM | > 100 | > 100 µM | – | > 100 | – | – | – | – | – | – | –
NC(N)=NS(=O)(=O)c1ccc(NC(=O)c2cccc3c(Nc4ccc(S(=O)(=O)N=C(N)N)cc4)c4ccc(Cl)cc4nc23)cc1 | > 100 | > 100 | > 100 µM | – | > 100 µM | > 100 | > 100 | – | – | – | – | – | – | –
COc1cc(C2C(Cl)C(=O)N2n2cnc3ccccc3c2=O)cc(OC)c1OC (stereo not given) | > 100 | > 100 | > 100 µM | > 100 | > 100 µM | > 100 | > 100 | – | – | – | – | – | – | –
CC1=C(C(=O)Nc2ccccc2)C(c2ccc3c(c2)OCO3)C(C(=O)Nc2ccccc2)=C(C)N1 | > 100 | 85.4 | > 100 µM | > 100 | > 100 µM | > 100 | > 100 | – | – | – | – | – | – | –
O/N=C1/C(=C/c2ccc(F)cc2)CCCC1C(NO)c1ccc(F)cc1 (stereo not given) | > 100 | > 100 | > 100 µM | > 100 | > 100 µM | 87.3 | 64.5 | – | – | – | – | – | – | –
C/C(=N\N(C)C)c1sc(-n2nc(-c3ccccc3)cc2-c2ccccc2)nc1C | > 100 | > 100 | > 100 µM | > 100 | > 100 µM | > 100 | > 100 | – | – | – | – | – | – | –
C/C(=N\NC(=S)Nc1ccc(C(=O)O)cc1)c1ccccn1 | > 100 | 63.7 | > 100 µM | 49.7 | 85.8 µM | 97.5 | 62.1 | – | – | – | – | – | – | –

Compound | TGI (DLD-1 colon) [µM] | TGI (XF 498 CNS) [µM] | TGI (LXFL 529 NSCLC) | TGI (M19-MEL melanoma) [µM] | TGI (IGROV1 ovarian) | TGI (HOP-18 NSCLC) [µM] | TGI (UACC-257 melanoma) [µM] | GI50 (DLD-1 colon) [µM] | TGI (DU-145 prostate) [µM] | GI50 (LXFL 529 NSCLC) [µM] | GI50 (M19-MEL melanoma) [µM] | GI50 (IGROV1 ovarian) [µM] | GI50 (UACC-257 melanoma) [µM] | GI50 (XF 498 CNS) [µM]
Cn1ncc2cc3c(Nc4ccc(Cl)cc4)cccc3nc21 | > 100 | 20.5 | 42.7 µM | 43.9 | 38.8 µM | – | 38.3 | – | – | – | – | – | – | –
COc1ccc(-c2oc3cc(O)c(OC)c(O)c3c(=O)c2OC2OC(CO)C(O)C(O)C2O)cc1 (stereo not given) | > 100 | – | > 100 µM | > 100 | > 100 µM | > 100 | – | – | – | – | – | – | – | –
S=c1[nH]nc(COc2ccc(Cl)cc2)o1 | > 100 | – | > 100 µM | > 100 | > 100 µM | > 100 | > 100 | – | – | – | – | – | – | –
CCOP(=O)(OCC)C1C(=O)O[C@H]2CCCC[C@@H]12 (stereo not given in full) | > 100 | > 100 | > 100 µM | > 100 | > 100 µM | > 100 | > 100 | – | – | – | – | – | – | –
CCOC(=O)CCC(NC(=O)c1ccc(N=Cc2nc3cc(C(F)(F)F)ccc3nc2-c2ccccc2)cc1)C(=O)OCC (stereo not given) | > 100 | 11.7 | 50 µM and > 100 µM | > 100 | 50 µM and > 100 µM | > 100 | > 100 | > 100 | 50 | > 100 | > 100 | > 100 | > 100 | –
CCOC(=O)C1C=C2O[C@@H]3OC4(CCCCC4)O[C@@H]3C2[C@H]2C(=O)C=CC(=O)[C@@]12C(=O)OC (stereo not given in full) | 35.1 | 12.8 | 22.9 µM | 31.4 | 27.6 µM | 32.4 | 30.8 | – | – | – | – | – | – | –
CCOC(=O)/C(C1=N[C@H](C(=O)OCC)CS1)=C(\C)O | > 100 | > 100 | > 100 µM | > 100 | > 100 µM | > 100 | > 100 | – | – | – | – | – | – | –
CCCCN(CCCC)C(=O)C(=O)CC(=O)c1ccc(Br)cc1 | > 100 | > 100 | > 100 µM | > 100 | > 100 µM | > 100 | > 100 | – | – | – | – | – | – | –
Cc1cc(Br)cc(C)c1NC(=O)C(=O)CC(=O)c1sc(-n2nc(-c3ccccc3)cc2-c2ccccc2)nc1C | > 100 | – | > 100 µM | > 100 | > 100 µM | > 100 | > 100 | – | – | – | – | – | – | –
CC(=O)O[C@H]1C(=O)[C@@]2(C)C([C@H](OC(=O)c3ccccc3)[C@]3(O)C[C@H](OC(=O)[C@H](O)[C@H](NC(=O)c4ccccc4)c4ccc(Cl)cc4)C(C)=C1C3(C)C)C1(OC(C)=O)CO[C@@H]1C[C@@H]2O (stereo not given in full) | – | – | 26 µM | – | – | – | – | – | – | – | – | – | – | 0.0182
NNC(=O)/C(=C/c1cccc([N+](=O)[O-])c1)NC(=O)c1ccccc1 | > 100 | > 100 | > 100 µM | > 100 | > 100 µM | > 100 | > 100 | – | – | – | – | – | – | –
Cn1nc(-c2ccccc2NC(=O)C(F)(F)F)c(=O)n(C)c1=S | > 100 | 36.9 | > 100 µM | 48.7 | > 100 µM | – | – | – | – | – | – | – | – | –
CCOC(=O)Cc1c(Cc2[nH]c(C(=O)OCc3ccccc3)c(CC(=O)OCC)c2CC(=O)OCC)[nH]c(C(=O)OCc2ccccc2)c1CC(=O)OCC | – | – | > 100 µM | > 100 | > 100 µM | > 100 | – | – | – | – | – | – | – | –
C=C(c1ccccc1N)[C@@]1(O)C[C@H](/C(=C\C)CO)C[C@@H]1NCc1ccccc1 | – | – | – | 62.1 | > 100 µM | 52.4 | 32.3 | – | – | – | – | – | – | –
CC(=O)Oc1c(C)n(CCCl)ccc1=O | > 100 | > 100 | > 100 µM | > 100 | – | > 100 | > 100 | – | – | – | – | – | – | –
CC(Cl)(/C=C/Cl)C(Cl)/C=C/C(Cl)(CCl)CBr (stereo not given) | 12.5 | – | 2.5 µM | 13.5 | 25.1 µM | 11.6 | 7.02 | – | – | – | – | – | – | –
